Assay results taken from PMC9226124, “Macrocycle-stabilization of its interaction with 14-3-3 increases plasma membrane localization and activity of CFTR” (Nature Communications, 2022).
“And” between values parts separate entries of the source, which are not always exact repeats. Equal entries are not always repeated. Blank lines part the entries; values can stand above or below the compound they belong to.

Columns and labels:
[1] = target: T1, 14-3-3β/CFTRpS753pS768 complex (Homo sapiens, UniProt P13569+P31946); experiment: Dose-response fluorescence polarization (FP) assay, compound titration; type: binding; details: for EC50: 14-3-3β 10 μM, labeled CFTRpS753pS768 100 nM, read-out: EC50; for FP signal: With 14-3-3
T1 construct: His6 (cleaved yes); made in house; peptide synthetic
Method: The 14-3-3β concentration used for the FP screening assay was 10 μM (dashed line). c HTS FP assay of the Cyclenium library. The samples contain 100 nM of FITC-CFTR_pS753pS768 peptide, 10 μM 14-3-3β, and 50 μM compound. FC-A (100 µM) was added as a positive control and DMSO as the negative control. Hit compounds are defined as a polarization increase which is higher than 20% of the response of FC-A. Red squares are compounds that appeared positive in the negative control without 14-3-3. […] Background polarization was subtracted from all values, n = 3 technical replicates. Compounds selected for further analysis are indicated with an asterisk. e Polarization in the absence of 14-3-3. […] Source data are provided as a Source Data file. […]
The FITC-labeled peptides were dissolved in FP buffer (10 mM HEPES pH 7.4, 150 mM NaCl, 0.1% Tween20, 1 mg/mL BSA) to a final concentration of 100 nM or 10 nM. For the dose-response assays, a 14-3-3β concentration of 10 μM was used while titrating the compounds in a two-times dilution series and, for the other assays, a dilution series of 14-3-3β was made with constant concentration of compound. The dilution series were made in 384 Corning Black Round Bottom well plates and their polarization was measured with a Tecan Infinite F500 plate reader (ex. = 485 nm, em. = 535 nm). The method of fitting of the curves was: “log(agonist) vs. response – Variable slope (four parameters)” from GraphPad Prism. The equation is Y = Bottom + (Top-Bottom)/(1 + 10^((LogEC50-X)*HillSlope)).

[2] = target: T2, 3HA-tagged F508del-CFTR in BHK cells (Homo sapiens, UniProt P13569, DEL508-508); experiment: CFTR trafficking assay (surface expression); type: cell-based, hamster; details: for F508del-CFTR surface expression signal (Fig5a): individual replicates
T2 construct: expressed in transfected cells; host or cells: baby hamster kidney (BHK) cells (Carlile et al. 2007)
Method: Twelve (12) validated hit compounds from the initial screening and focused validation library were tested for their effect on F508del-CFTR trafficking. Baby hamster kidney (BHK) cells expressing 3HA-tagged F508del-CFTR were treated for 24 h with 10 μM compound. After fixation of the cells, a combination of mouse monoclonal anti-HA antibody and anti-mouse IgG conjugated with FITC was used to detect F508del-CFTR that had trafficked to the plasma membrane as described previously. […] Additionally, a fluorescence imaging plate reader (FLIPR) Membrane Potential (FMP) assay was performed. This assay measures real-time membrane potential changes associated with ion channel activation and ion transporter proteins. F508del-CFTR expressing BHK cells were incubated for 24 h with 20 μM compound before treatment with the potentiator genistein, FMP dye, and activator forskolin. The fluorescence intensity is thus a measure for the function of the CFTR protein in the plasma membrane of these cells. The F508del-CFTR corrector VX-809 (lumacaftor) and the triple combination Trikafta® were used as positive controls in this assay. […] Another cellular assay was performed with the Ussing Chamber, which detects and quantifies transport of ions across epithelial tissue. F508del-CFTR expressing cystic fibrosis epithelial (CFBE) cells were treated for 18 h with 20 μM CY007424. After forskolin and genistein stimulation, the short-circuit current of the cells was measured.
Fig. 5 Cellular activity of macrocycles stabilizing the 14-3-3/CFTR PPI. a Surface expression of 3HA-tagged F508del-CFTR in BHK cells incubated for 24 h with 10 μM compound and treated with mouse monoclonal anti-HA antibody and anti-mouse IgG conjugated with FITC (n = 4 or n = 3 biological replicates, bars represent the mean). b, c FLIPR Membrane Potential (FMP) assay of F508del-CFTR expressing BHK cells treated for 24 h with the macrocycles (b, n = 6 biological replicates, bars represent the mean) or with CY007424 and/or VX-809 or Trikafta®, with and without CFTR inhibitor INH172 (c, n = 4 biological replicates, bars represent the mean). d Using chamber experiment of F508del-CFTR expressing CFBE cells treated for 18 h with CY007424, VX-809, or Trikafta® or in combinations. CFTR activity is assayed by measurement of short-circuit current of cells after stimulation by forskolin and the potentiator genistein (n = 3 or n = 6 biological replicates, bars represent the mean). Source data are provided as a Source Data file.
The trafficking assay was performed as previously described by Carlile et al.[21]. In brief, 3HA-tagged F508del-CFTR expressing baby hamster kidney (BHK) cells (cells earlier described by Carlile et. al. 2007)[21] were seeded in 96-well plates (Corning half area, black-sided, clear bottom) at 15,000 cells per well. After 24 h incubation at 37 °C, the cells were treated with 10 μM of compound for 24 h (final DMSO concentration 1% v/v). The cells were fixated with 4% paraformaldehyde, washed with PBS, and then blocked with fetal bovine serum (5% in PBS). Mouse monoclonal anti-HA antibody (H9658 Sigma, 1:150 dilution in PBS) was incubated overnight, and, after three washes with PBS, the background fluorescence was measured in a plate reader (488 nm excitation, 510 nm emission). The secondary antibody anti-mouse IgG conjugated with FITC (F5262 Sigma, 1:100 dilution in PBS) was incubated for 1 h, the cells were washed three times with PBS and analyzed in the plate reader again. Background fluorescence was subtracted from the signal, after which the signal was normalized to the DMSO control and wt-CFTR expressing cells.

T1 sequence (P31946 whole entry): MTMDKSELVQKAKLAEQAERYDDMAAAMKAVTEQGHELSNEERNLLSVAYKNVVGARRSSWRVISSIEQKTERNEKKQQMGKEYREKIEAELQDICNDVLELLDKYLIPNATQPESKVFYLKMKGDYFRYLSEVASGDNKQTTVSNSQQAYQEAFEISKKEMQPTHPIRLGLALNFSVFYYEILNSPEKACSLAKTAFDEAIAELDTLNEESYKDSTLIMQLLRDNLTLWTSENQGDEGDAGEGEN
T1 sequence (P13569 747-774 limits assumed): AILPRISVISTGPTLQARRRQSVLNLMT
T2 sequence (P13569 with tags, fused parts or gaps DEL508-508): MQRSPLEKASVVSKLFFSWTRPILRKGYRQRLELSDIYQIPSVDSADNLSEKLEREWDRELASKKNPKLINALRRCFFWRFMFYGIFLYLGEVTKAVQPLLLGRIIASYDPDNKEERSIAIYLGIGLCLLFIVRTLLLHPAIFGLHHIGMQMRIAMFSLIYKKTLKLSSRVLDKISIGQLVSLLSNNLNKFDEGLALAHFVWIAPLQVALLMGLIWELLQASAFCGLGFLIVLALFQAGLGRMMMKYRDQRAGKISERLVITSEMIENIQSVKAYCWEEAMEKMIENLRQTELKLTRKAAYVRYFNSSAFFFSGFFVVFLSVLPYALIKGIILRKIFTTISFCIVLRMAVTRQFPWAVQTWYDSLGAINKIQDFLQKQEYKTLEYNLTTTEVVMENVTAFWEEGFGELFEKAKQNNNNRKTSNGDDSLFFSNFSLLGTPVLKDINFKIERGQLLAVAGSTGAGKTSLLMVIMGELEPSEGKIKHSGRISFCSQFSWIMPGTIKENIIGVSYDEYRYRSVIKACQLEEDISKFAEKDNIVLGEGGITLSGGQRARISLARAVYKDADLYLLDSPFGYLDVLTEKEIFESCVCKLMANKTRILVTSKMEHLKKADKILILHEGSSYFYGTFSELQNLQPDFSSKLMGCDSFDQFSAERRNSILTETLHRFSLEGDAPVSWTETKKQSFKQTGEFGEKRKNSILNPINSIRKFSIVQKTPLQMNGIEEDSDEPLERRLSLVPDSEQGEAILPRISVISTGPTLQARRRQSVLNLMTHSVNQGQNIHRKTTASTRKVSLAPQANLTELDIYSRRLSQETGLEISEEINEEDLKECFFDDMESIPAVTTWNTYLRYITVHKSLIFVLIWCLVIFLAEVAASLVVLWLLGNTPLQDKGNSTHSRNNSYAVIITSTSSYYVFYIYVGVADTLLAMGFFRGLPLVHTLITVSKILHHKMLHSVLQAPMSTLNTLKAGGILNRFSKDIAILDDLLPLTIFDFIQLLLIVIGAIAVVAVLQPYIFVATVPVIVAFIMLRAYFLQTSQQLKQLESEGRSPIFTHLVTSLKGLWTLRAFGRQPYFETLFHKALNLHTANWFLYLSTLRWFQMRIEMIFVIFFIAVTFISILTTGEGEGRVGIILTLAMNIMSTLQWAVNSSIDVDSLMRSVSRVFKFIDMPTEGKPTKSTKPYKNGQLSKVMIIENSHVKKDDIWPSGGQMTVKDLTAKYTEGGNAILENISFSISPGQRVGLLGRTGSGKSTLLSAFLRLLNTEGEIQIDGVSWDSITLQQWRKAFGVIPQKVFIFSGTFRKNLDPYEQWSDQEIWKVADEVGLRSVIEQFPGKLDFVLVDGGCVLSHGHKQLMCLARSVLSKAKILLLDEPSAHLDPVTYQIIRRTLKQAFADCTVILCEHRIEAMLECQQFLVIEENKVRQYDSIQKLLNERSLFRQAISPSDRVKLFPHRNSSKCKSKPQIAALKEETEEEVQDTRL

EC50 [1]: 147 µM
FP signal ([1]; compound 476.8 pM): 1
FP signal ([1]; compound 953.7 pM): 3
FP signal ([1]; compound 1.90735e-9 M): 2
FP signal ([1]; compound 3.8147e-9 M): 5
FP signal ([1]; compound 7.6294e-9 M): 5
FP signal ([1]; compound 1.52588e-8 M): 4
FP signal ([1]; compound 3.05176e-8 M): 6
FP signal ([1]; compound 6.10352e-8 M): 6
FP signal ([1]; compound 1.2207e-7 M): 3
FP signal ([1]; compound 2.44141e-7 M): 4
FP signal ([1]; compound 4.88281e-7 M): 4
FP signal ([1]; compound 9.76563e-7 M): 5
FP signal ([1]; compound 1.95313e-6 M): 5
FP signal ([1]; compound 3.90625e-6 M): 6
FP signal ([1]; compound 7.8125e-6 M): 10
FP signal ([1]; compound 1.5625e-5 M): 13
FP signal ([1]; compound 3.125e-5 M): 24
FP signal ([1]; compound 6.25e-5 M): 59
FP signal ([1]; compound 0.000125 M): 124
FP signal ([1]; compound 0.00025 M): 186
FP signal ([1]; compound 0.0005 M): 230
FP signal ([1]; compound 0.001 M): 257
Compound: CC1NC(=O)C(CCCNC(=N)N)NC(=O)C2CCCN2Cc2cccc(c2)-c2ccccc2CNC(=O)C(CCCNC(=N)N)NC1=O (stereo not shown) [CY007476]
F508del-CFTR trafficking towards the plasma membrane ([2]; BHK cells, 24 h, 10 μM compound): increase of F508del-CFTR trafficking towards the plasma membrane
F508del-CFTR surface expression signal (Fig5a) [2]: 1288.45 and 1177.16 and 1241.43 and 1259.33

EC50 [1]: 275 µM
FP signal ([1]; compound 453 pM): 1
FP signal ([1]; compound 906 pM): 2
FP signal ([1]; compound 1.81198e-9 M): 2
FP signal ([1]; compound 3.62396e-9 M): 3
FP signal ([1]; compound 7.24792e-9 M): 3
FP signal ([1]; compound 1.44958e-8 M): 1
FP signal ([1]; compound 2.89917e-8 M): 3
FP signal ([1]; compound 5.79834e-8 M): 4
FP signal ([1]; compound 1.15967e-7 M): 3
FP signal ([1]; compound 2.31934e-7 M): 4
FP signal ([1]; compound 4.63867e-7 M): 6
FP signal ([1]; compound 9.27734e-7 M): 3
FP signal ([1]; compound 1.85547e-6 M): 3
FP signal ([1]; compound 3.71094e-6 M): 4
FP signal ([1]; compound 7.42187e-6 M): 6
FP signal ([1]; compound 1.48437e-5 M): 6
FP signal ([1]; compound 2.96875e-5 M): 6
FP signal ([1]; compound 5.9375e-5 M): 26
FP signal ([1]; compound 0.00011875 M): 67
FP signal ([1]; compound 0.0002375 M): 127
FP signal ([1]; compound 0.000475 M): 188
FP signal ([1]; compound 0.00095 M): 241
Compound: N=C(N)NCCCC1NC(=O)C(CCC(N)=O)NC(=O)C(CCCNC(=N)N)NC(=O)C2CCCN2Cc2ccccc2Sc2ccccc2CNC1=O (stereo not shown) [CY007502]
F508del-CFTR surface expression signal (Fig5a) [2]: 344.243 and 408.371 and 366.875 and 405.395

Compound: N=C(N)NCCCC1NC(=O)C(CCC(N)=O)NC(=O)C(CCCNC(=N)N)NC(=O)C2CCCN2Cc2cccc(c2)-c2ccccc2CNC1=O (stereo not shown) [CY007455]
EC50 [1]: 170 µM
FP signal ([1]; compound 476.8 pM): 5
FP signal ([1]; compound 953.7 pM): 6
FP signal ([1]; compound 1.90735e-9 M): 3
FP signal ([1]; compound 3.8147e-9 M): 4
FP signal ([1]; compound 7.6294e-9 M): 5
FP signal ([1]; compound 1.52588e-8 M): 4
FP signal ([1]; compound 3.05176e-8 M): 4
FP signal ([1]; compound 6.10352e-8 M): 5
FP signal ([1]; compound 1.2207e-7 M): 7
FP signal ([1]; compound 2.44141e-7 M): 6
FP signal ([1]; compound 4.88281e-7 M): 4
FP signal ([1]; compound 9.76563e-7 M): 4
FP signal ([1]; compound 1.95313e-6 M): 5
FP signal ([1]; compound 3.90625e-6 M): 9
FP signal ([1]; compound 7.8125e-6 M): 8
FP signal ([1]; compound 1.5625e-5 M): 15
FP signal ([1]; compound 3.125e-5 M): 26
FP signal ([1]; compound 6.25e-5 M): 53
FP signal ([1]; compound 0.000125 M): 107
FP signal ([1]; compound 0.00025 M): 170
FP signal ([1]; compound 0.0005 M): 209
FP signal ([1]; compound 0.001 M): 244
F508del-CFTR surface expression signal (Fig5a) [2]: 15.0857 and 101.743 and 158.532 and 44.3829

Compound: N=C(N)NCCCC1NC(=O)C(CCC(N)=O)NC(=O)C(CCCNC(=N)N)NC(=O)C2CCCN2Cc2cccc(c2)-c2ccccc2CNC1=O (stereo not shown) [CY007458]
EC50 [1]: 151 µM
FP signal ([1]; compound 476.8 pM): 6
FP signal ([1]; compound 953.7 pM): 5
FP signal ([1]; compound 1.90735e-9 M): 4
FP signal ([1]; compound 3.8147e-9 M): 5
FP signal ([1]; compound 7.6294e-9 M): 7
FP signal ([1]; compound 1.52588e-8 M): 4
FP signal ([1]; compound 3.05176e-8 M): 6
FP signal ([1]; compound 6.10352e-8 M): 5
FP signal ([1]; compound 1.2207e-7 M): 4
FP signal ([1]; compound 2.44141e-7 M): 5
FP signal ([1]; compound 4.88281e-7 M): 6
FP signal ([1]; compound 9.76563e-7 M): 6
FP signal ([1]; compound 1.95313e-6 M): 5
FP signal ([1]; compound 3.90625e-6 M): 8
FP signal ([1]; compound 7.8125e-6 M): 11
FP signal ([1]; compound 1.5625e-5 M): 15
FP signal ([1]; compound 3.125e-5 M): 33
FP signal ([1]; compound 6.25e-5 M): 65
FP signal ([1]; compound 0.000125 M): 124
FP signal ([1]; compound 0.00025 M): 179
FP signal ([1]; compound 0.0005 M): 221
FP signal ([1]; compound 0.001 M): 252
F508del-CFTR surface expression signal (Fig5a) [2]: 354.117 and 244.376 and 379.817 and 293.603
